These results are taken from patent publication US12070457B2, “Substituted pyridines, pyridazines, pyrimidines, and 1,2,3-triazines as bruton's tyrosine kinase inhibitors” (HUTCHISON MEDIPHARMA LIMITED, priority 2020, dated 2024).

Data set [1] in a line: Study on in vivo pharmacokinetics in mice. Details: species or system mouse. Conditions: mice, intragastric, 10 mg/kg. The source says:
Example 6 Study on In Vivo Pharmacokinetics in Mice
Solutol HS15 was purchased from BASF, Germany, ethanol (anhydrous) was purchased from Nanjing Chemical Reagent Co., Ltd., physiological saline was purchased from Huayu (Wuxi) Pharmaceutical Co., Ltd., dimethyl sulfoxide (DMSO) and sodium carboxymethyl cellulose 800-1200 (CMC-Na) were purchased from Sinopharm Chemical Reagent Co., Ltd.
Preparation of ethanol/Solutol mixed solution (1:1, v/v): taking an appropriate amount of Solutol HS15 in a centrifuge tube and placing in a 37° C. water bath until dissolved, placing on the bench top to room temperature, taking 1 mL of Solutol in a centrifuge tube containing 1 mL of ethanol and mixing well to obtain the mixed solution.
Taking an appropriate amount of stock solution and placing in a blank centrifuge tube, adding an appropriate amount of ethanol/Solutol mixed solution prepared in advance, vortexing, then adding an appropriate amount of physiological saline, and mixing well until a transparent liquid.
3. Administration to Animals and Sample Collection:
Male ICR mice were purchased from Shanghai Lingchang Biotechnology Co., Ltd. 18 mice were randomly divided into intravenous administration group and intragastric administration group. The mice were fasted overnight before administration. The mice were withheld food but allowed to access water freely within 4 hours after administration, and allowed to freely access food and water after 4 hours. After anesthesia with isoflurane, blood was collected from the retroorbital venous plexus and placing in an centrifuge tube containing anticoagulant, and the centrifuge tube was stored in an box containing wet ice until the plasma was centrifuged.
The plasma samples were pre-treated and then analyzed by liquid chromatography-tandem mass spectrometry (LC-MS/MS), the instrument model was API5500. The analytical chromatographic column was Waters XSELECT HSS T3 C18 column (50×2.1 mm, 2.5 μm). In the mobile phases, deionized water containing 0.1% formic acid and 0.1% acetonitrile was used as the aqueous phase and acetonitrile containing 0.1% formic acid was used as the organic phase. The concentrations of the compound in the samples were determined as follows. Firstly, a standard curve was established, and the peak area ratios of the compound 19 to the internal standard in the standard curve were used as indexes. The theoretical concentrations of compound 19 and the peak area ratios of compound 19 to the internal standard were fitted with a quadratic regression equation to obtain the regression equation. The sample concentrations were calculated by measuring the peak area ratio of the compound of the test sample to the internal standard according to the standard curve.

A short description of data set [2]: Stability test in liver microsomes (rat). Type of data set: in vitro ADME. The settings on record: rat liver microsomes, 1 μM compound, 30 min. From the text: (§1) Example 5 Stability Test in Liver Microsomes
(§2) Both male CD-1 mouse pooled liver microsomes and male SD rat pooled liver microsomes were purchased from BioreclamationIVT Corporation, USA.
(§3) Phenacetin, glucose-6-phosphate dehydrogenase (G-6-PDH) and nicotinamide adenine dinucleotide phosphate (NADP) were all purchased from Sigma-Aldrich Corporation, USA. Glucose-6-phosphate (G-6-P) was purchased from Shanghai Eybridge Chemical Technology Co., Ltd.
(§4) Ten mM test compound stock solution: a certain amount of test compound was weighed, and dissolved with an appropriate volume of DMSO to prepare a stock solution with a concentration of 10 mM for use.
(§5) Reaction stopping solution: an appropriate amount of internal standard compound phenacetin was dissolved in acetonitrile to prepare a reaction stopping solution with a concentration of 1000 ng/mL for use at room temperature.
(§6) The test compound stock solution was diluted with an organic solvent (usually a mixture of acetonitrile, methanol and water with various ratios, depending on the solubility of the compound, if necessary, 1 N hydrochloric acid or 1 N sodium hydroxide would be added to facilitate solubilization) to the 0.1 mM (the final concentration of the compound in the reaction system was 1 μM) and the concentration percentage of the organic solvents in the incubation system no more than 1% (wherein the percentage of DMSO was required to be no more than 0.1%). An appropriate amount of 100 mM NADP, 500 mM G-6-P and 100 Unit/mL G-6-PDH were mixed and diluted with ultrapure water (the final system contains 1 mM NADP, 5 mM G-6-P and 1 Unit/mL G-6-PDH), pre-incubated in a 37° C. water bath for 10 minutes and then placed on ice for use as a NADPH regeneration solution. 20 mg/mL liver microsomes solution and 200 mM phosphate buffer was mixed, and diluted with ultrapure water to give a liver microsomes solution containing 2.5 mg/mL liver microsomes (the final concentration of the reaction system is 0.5 mg/mL) and 50 mM phosphate buffer. The diluted liver microsomes solution was mixed with 0.1 mM compound solution, a mixture of 100 mM EDTA, 300 mM MgCl2 solution, 200 mM phosphate buffer (the final system was 3 mM MgCl2, 1 mM EDTA and 50 mM phosphate buffer) and water in an appropriate volume was added. Finally, the NADPH regeneration solution was added, then the reaction solution was placed in a 37° C. water bath to start the reaction (the reaction time was 30 minutes), and the reaction was stopped by adding the ice-cold acetonitrile reaction stopping solution containing the internal standard. The 0-minute sample was not incubated in a 37° C. water bath, and its difference from the 30-minute sample further lies in that the ice-cold acetonitrile reaction stopping solution containing the internal standard was added first, and then the NADPH regeneration solution was added. The sample added with the reaction stopping internal standard solution was vortexed and mixed well, and then centrifuged at 4400 rpm for 10 minutes. The supernatant was taken and diluted ten times with 50% methanol for LC-MS/MS analysis.
(§7) LC-MS/MS was used to determine the concentration of the compound in the sample. The percentage of the remaining compound after 30 minutes of incubation comparing with that in the 0-minute sample was calculated using the peak area ratio of the compound to the internal standard as an indicator, to evaluate the metabolic stability of the compound.
(§8) Instrument: API4500, API4000 or LTQ Mass Spectrometer; the liquid phase is UHPLC system (Shimadzu LC-30 AD, model Nexra X2) including liquid delivery unit, column thermostat, detector and autosampler; or Agilent 1200 Binary Pump series HPLC and CTC Autosampler.
(§9) Chromatographic column: Waters XSELECT Hss T3 C18 (2.5 μm, 2.1×50 mm) or […] (5 μm, 2.0×50 mm)
(§10) Mobile phase: • A: water with 0.1% FA (formic acid) (with or without 0.1% ACN (acetonitrile)) • B: acetonitrile with 0.1% FA (formic acid).

Data set [3] in a line: Stability test in liver microsomes (mouse). Type of data set: in vitro ADME. Conditions: mouse liver microsomes, 1 μM compound, 30 min.
Excerpt: as §1, §2, §3, §4, §5, §6, §7, §8, §9, §10
In general terms: Microsomes from liver hold many membrane-bound enzymes, among them those of drug oxidation.

Data set [4] can be described thus: Rat arthritis model induced by type II collagen (CIA). Conditions: 4 mg/kg oral once a day, CIA rats. Type of data set: in vivo. As for the experimental part:
Example 9 Therapeutic Effect of the Compound of the Present Invention on a Rat Arthritis Model Induced by Type II Collagen
An appropriate amount of bovine type II collagen (CII, Chondrex (Redmond, WA, USA), Cat #20021) was weighed and dissolved in 0.1 mole of acetic acid (SPGC Sinopharm Chemical Reagent Co., Ltd (Shanghai, P.R.China), Cat #: 10000218.), which was formulated into a solution with a concentration of 6 mg/mL, stirred at 4° C. overnight, and added with an equal volume of Freund's incomplete adjuvant (Sigma-Aldrich. (St. Louis, MO, USA), Cat #: SLBW0366.), fully emulsified to prepare an emulsion with a CII concentration of 3 mg/mL. […]
The paw volume was measured on day 8 after immunization, and the left and right hind paw volumes (V) were measured every day after the paw volume increase was detected. […]
The area under the curve (AUC) of the average paw volume change is the area under the curve of the arthrosis score change calculated by the trapezoid method, and the calculation formula is: AUCpaw volume=½×(APSd1+APSd2)λ(d2−d1)+½×(APSd2+APSd3)×(d3-d2)+. . . +½×(APSdn+APSd(n-1))×(dn−dn-1)
ED50 is calculated by XLfit software according to the AUC inhibition ratio of the area under the curve of the average paw volume change. […]

In turn, `C[C@H]1CN(C2COC2)CCN1c1ccc(Nc2cc(-c3ccnc(N4CCn5c(cc6c5CC(C)(C)C6)C4=O)c3CO)cn(C)c2=O)nc1` [GDC-0853, fenebrutinib, reference compound] had a T1/2 in data set [1] of 1.5 h. This molecule also came in with a C8 h in data set [1] (plasma at 8 h) of 143 ng/mL. The “RLM, percentage of remaining compound after 30 minutes of incubation” value in data set [2] amounted to 81.0%. For the same molecule, the “MLM, percentage of remaining compound after 30 minutes of incubation” value in data set [3] was 76.3%. Further, the “paw volume compared with vehicle control group” value in data set [4] is “significantly reduced”.
